Reference: patent publication US20160008380A1, “TARGETING GLUTAMINE METABOLISM IN BRAIN TUMORS” (THE JOHNS HOPKINS UNIVERSITY, priority 2013, published 2016)
“Also recorded” adds a separate entry of the source.

Key:
[1] = administered orally at therapeutically effective levels; cited from earlier work
[2] = system: hindbrain derived neurospheres transduced with oncogenes not including MYC; test: BrdU proliferation assay, PNET models; type: cell-based, human; details: 10 uM DON, no MYC
Description: (§1) FIG. 10 A: Acivicin suppresses the growth of MYC containing human neural stem cell PNET models. Graph comparing percent BrdU positivity in mock treated (blue) and with 10 uM acivicin (red) treated cells. […] FIG. 10 B: Acivicin suppresses the growth of MYC containing human neural stem cell PNET models. The graph compares percent BrdU positivity in mock treated (blue) and with 10 uM DON (red) treated cells.
(§2) For measurement of proliferation, cells were treated with the indicated drug for 18 hours and were then pulsed with bromo-deoxyuridine for an additional 6 hours. Cells were triturated to single cells and then cytospun onto microscope slides. After washing cells once with PBS, they were fixed with 4% paraformaldehyde for 15 minutes, permeabilized with 0.1% Triton/PBS, denatured with 0.1N HCl for 15 minutes, then blocked with 5% normal goat serum/PBST or 5% BSA/PBST, and incubated with anti-BrdU (Sigma) antibody at 37 degrees for one hour. After washing three times with PBST, cells were incubated for 45 minutes in the dark with the appropriate Cy-2 or Cy-3 conjugated secondary antibody (Jackson Immunoresearch). […] Multiple high power fields were photographed at random, and the percent BrdU positivity was calculated by counting first BrdU positive cells and then DAPI positive cells and dividing the former by the latter. […]

[3] = system: Control cells (neural stem cells); test: Cleaved caspase-3 staining (apoptosis); type: cell-based, human; details: 72 h treatment
Description: (§3) Cells were treated with acivicin or DON for 72 h. The cells were then fixed and stained with an antibody for cleaved caspase-3, followed by a Cy-3 conjugated secondary and a DAPI counterstain. Multiple images were taken of each treatment and cleaved-caspase-3 positive cells counted using Adobe Photoshop. […] Control cells were unaffected by treatment. Representative images are seen in (B and D). Images colorized with Adobe Photoshop.

[4] = system: neural stem cell models of medulloblastoma; test: Cleaved caspase-3 staining (apoptosis); type: cell-based, human; details: 72 h treatment, p<0.05
Description: as §3

[5] = system: MYC transduced hindbrain derived human neural stem cell PNET models; test: BrdU proliferation assay, PNET models; type: cell-based; details: FIG. 10B
Description: as §1, §2

[6] = system: KNS42 (low-MYC glioma cell line); test: MTS cell growth assay; type: cell-based; details: KNS42, 3 days, same concentrations as SF188 and UW479
Description: FIG. 9: MTS assay showing sensitivity of high MYC SF188 and […] glioma cell lines and insensitivity of low-MYC KNS42 to glutamine metabolic inhibitors DON and acivicin. Cell growth was measured over 3 days at increasing concentrations of drug.
(§4) For relative cell growth assays, cells were seeded in 96-well plates in triplicate at densities of 5000 cells per well. Cell proliferation was monitored at the indicated number of days using the colorimetric CellTiter 96 MTS assay (Promega, Madison, Wis.).

[7] = system: UW228 (low-MYC medulloblastoma cell line); test: MTS cell growth assay; type: cell-based, human; details: UW228, 3 days of treatment at increasing concentrations
Description: (§5) FIG. 4: Growth as measured by MTS assay after 3 days of acivicin treatment at increasing doses. The low-MYC cell line, UW228 (FIG. 4A), is not sensitive to treatment with acivicin. The high-MYC cell lines, D283 (FIG. 4B) and D425 (FIG. 4C) are sensitive to acivicin, showing an inhibition of growth of approximately 50% or more at a concentration of 10 uM acivicin.
as §4
(§6) We tested this hypothesis using UW228 (low MYC) and D283 and D425 (high MYC) medulloblastoma cell lines.

[8] = system: D425Med; test: Cleaved caspase-3 immunofluorescence (apoptosis); type: cell-based, human; details: n=3, p<0.05
From the text: (§7) FIG. 11: Medulloblastoma cell lines expressing c-MYC and glutaminase (GLS) are sensitive to inhibitors of glutamine metabolism. c-MYC levels positively correlate with GLS levels in D425Med and D283Med (A) as indicated by western blot. The growth of D283Med (B) and D425Med (C) is inhibited when treated with DON or Acivicin as measured by MTS assay. […] Cells were fixed and stained with an anti-cleaved caspase-3 antibody followed by a Cy-3 conjugated secondary and a DAPI counterstain. Multiple images were taken of each treatment and Cy3 positive cells were counted using Adobe Photoshop. Representative images are in D. Acivicin and DON treatment cause an increase the in sub-G1 (apoptotic) population of D425Med (E) and D283Med (F) as measured by flow cytometry.

[9] = system: D425Med; test: Sub-G1 (apoptotic) population by flow cytometry; type: cell-based, human
From the text: as §7

[10] = system: D283Med; test: Sub-G1 (apoptotic) population by flow cytometry; type: cell-based, human
From the text: as §7

[11] = system: D425 (D425Med, high-MYC medulloblastoma cell line); test: MTS cell growth assay; type: cell-based, human; details: for growth as measured by MTS assay: D425 / D425Med, increasing concentrations
Description: as §5, §7, §4, §6

[12] = system: D283 (D283Med, high-MYC medulloblastoma cell line); test: MTS cell growth assay; type: cell-based, human; details: for growth as measured by MTS assay: D283 / D283Med, increasing concentrations
Description: as §5, §7, §4, §6

[13] = system: D283Med xenografts; test: D283Med orthotopic and flank xenografts in nude mice; type: in vivo; details: IP 75 mg/kg acivicin 4 times a week, four weeks
Description: FIG. 13: Mice treated with Acivicin develop fewer and smaller flank tumors than untreated mice. Ten immunodeficient (nude) mice received orthotopic and flank xenografts of D283Med. Mice in the treatment group (n=5) were treated 4 times a week with an IP dose of 75 mg/kg of acivicin each time. Mice in the control group (n=5) received an IP injection of sterile PBS. After four weeks, all mice were sacrificed and brains and any flank tumors removed. 100% of the control group developed flank tumors, while only 40% of the treatment group developed flank tumors. The PBS treated mice also developed larger flank tumors (A, bars indicate mean tumor size, error bars SD).

[14] = system: UW228 cells engineered to express MYC (UW228-UWM13); test: MTS cell growth assay; type: cell-based, human; details: 3 days of drug treatment
Description: Values show mean (n=3) and error bars indicated standard deviation. FIG. 5B: The percent decrease in optical density between no drug and 50 uM acivicin. Error bars indicate SEM. *P=0.00029.
as §4
We next investigated if increasing MYC and GLS expression in a low MYC cell line could confer sensitivity to glutamine anti-metabolites.

[15] = system: cortex derived neurospheres transduced with oncogenes not including MYC; test: BrdU proliferation assay, PNET models; type: cell-based, human; details: 10 uM acivicin, no MYC
Description: as §1, §2

[16] = system: Neurospheres transfected with MYC; test: Cell cycle analysis (sub 2N population, flow cytometry); type: cell-based, human; details: 3 days of treatment, propidium iodide flow cytometry
Description: (§8) FIG. 7: Cell cycle analysis was performed using a Guava flow cytometer following 3 days of treatment in acivicin. Neurospheres transfected with MYC show an increase in the sub 2N population following 3 days of treatment with acivicin, indicating an increase in apoptosis after treatment.
(§9) We also asked this question using human neural stem cell models of aggressive brain tumors. We compared the sensitivity of human neural stem cells transduced with a package of oncogenes that contain MYC versus those that were transformed without using MYC.

[17] = system: non-MYC transformed neurospheres; test: as above; type: cell-based, human; details: 3 days of treatment, propidium iodide flow cytometry
Description: as §8, §9

[18] = system: MYC transduced cortex derived human neural stem cell PNET models; test: BrdU proliferation assay, PNET models; type: cell-based; details: FIG. 10A
Description: as §1, §2

[19] = system: human neural stem cells transformed without MYC (SV40 control); test: BrdU proliferation assay; type: cell-based
Description: (§10) FIG. 6: Suppression of proliferation of MYC-driven human neural stem cell models of medulloblastoma by acivicin. Two human neurosphere lines were treated with 10 uM acivicin for four days. On the fourth day, the spheres were pulsed with BrdU for 6 h. Following the pulse, the spheres were made single cells and fixed onto glass slides. Staining was performed using an anti-BrdU antibody followed by a secondary antibody conjugated to Cy3 and a DAPI counterstain. Images were taken at 400× (FIG. 6A, top panel). DAPI positive and BrdU positive (red) cells in the image were counted using Adobe Photoshop (FIG. 6A, bottom panel). An average of % positive BrdU cells was taken from three images. Error bars indicate SEM. *p=0.012.
(§11) FIG. 14: Acivicin decreases proliferation in neural stem cell models of MYC-driven medulloblastoma. Human neural stem cells derived from the developing cerebellum were transduced with lentiviral vectors coding for oncogenic elements associated with high-risk, MYC-driven medulloblastoma. SV40 was used as a control to immortalize the cells. The transduced neural stem cells were treated with acivicin for 72 h, and pulsed with bromodeoxyuridine for the final 6 hours of treatment. Cells were fixed and stained with an anti-BrdU antibody followed by a Cy-3 conjugated secondary and a DAPI counterstain. Multiple images were taken of each treatment and BrdU positive cells were counted using Adobe Photoshop. […] Representative images are in B.
(§12) For measurement of proliferation, cells were treated with the indicated drug for 18 hours and were then pulsed with bromo-deoxyuridine for an additional 6 hours. Cells were triturated to single cells and then cytospun onto microscope slides. After washing cells once with PBS, they were fixed with 4% paraformaldehyde for 15 minutes, permeabilized with 0.1% Triton/PBS, denatured with 0.1N HCl for 15 minutes, then blocked with 5% normal goat serum/PBST or 5% BSA/PBST, and incubated with anti-BrdU (Sigma) antibody at 37 degrees for one hour. After washing three times with PBST, cells were incubated for 45 minutes in the dark with the appropriate Cy-2 or Cy-3 conjugated secondary antibody (Jackson Immunoresearch). Cells were counterstained with DAPI and mounted with anti-fade (Vectastain). Multiple high power fields were photographed at random, and the percent BrdU positivity was calculated by counting first BrdU positive cells and then DAPI positive cells and dividing the former by the latter.

[20] = system: MYC-driven human neural stem cell models of medulloblastoma (cerebellar neurospheres); test: BrdU proliferation assay; type: cell-based
Description: as §10, §11, §12

[21] = 10 uM acivicin, four days, BrdU pulse 6 h

In the case of `[N-]=[N+]=CC(=O)CC[C@H](N)C(=O)O` [DON, 6-Diazo-5-oxo-L-norleucine], the “gastrointestinal (GI) toxicity” value [1] is given as “results in gastrointestinal (GI) toxicity”, the “reduction in proliferation” value [2] is given as “did not respond strongly; also recorded: slight reduction” and the “apoptosis (cleaved-caspase-3 positive cells)” value [3] is given as “unaffected”. For the same compound, the “apoptosis (cleaved-caspase-3 positive cells)” value [4] was “significant increase in apoptosis”, the “sensitivity of MYC driven PNET models” value [5] was “sensitive” and the “reduction in growth” value [6] was “modest reduction”. For the same compound, the “growth as measured by MTS assay (sensitivity)” value [7] was “relatively resistant”, the “apoptosis (cleaved caspase-3 immunofluorescence)” value [8] was “increase apoptosis” and the “sub-G1 (apoptotic) population” value [9] was “increase”. The “sub-G1 (apoptotic) population” value [10] was “increase”, the “growth as measured by MTS assay” value [11] was “suppressed; also recorded: inhibited” and the “growth as measured by MTS assay” value [12] was “suppressed; also recorded: inhibited”.
For `N[C@H](C(=O)O)[C@@H]1CC(Cl)=NO1` [acivicin, (2S)-Amino[(5S)-3-chloro-4,5-dihydro-1,2-oxazol-5-yl]ethanoic acid], the “flank tumor size / tumor growth” value ([13]; vs PBS, 75 mg/kg) was “markedly smaller tumors; also recorded: inhibits tumor growth”, the “mice that developed flank tumors” value ([13]; control group 100%) was 40% and the “growth compared to parental UW228 cells (MTS)” value [14] was “decreased growth”. The “reduction in proliferation” value [15] was “did not respond strongly; also recorded: modest reduction”, the “sub 2N population (apoptosis)” value [16] was “increased apoptosis; also recorded: increase” and the “sub 2N population (apoptosis)” value [17] was “did not show an increase; also recorded: do not show any increase”. The “apoptosis (cleaved-caspase-3 positive cells)” value [3] was “unaffected”, the “apoptosis (cleaved-caspase-3 positive cells)” value [4] was “significant increase in apoptosis” and the “sensitivity of MYC driven PNET models” value [18] was “sensitive”. For the same compound, the “reduction in growth” value [6] was “modest reduction”, the “change in proliferation (% BrdU positive cells)” value [19, 21] was “insensitive; also recorded: no change” and the “proliferation (BrdU positive cells)” value ([19]; SV40 control, acivicin 72 h, BrdU for the final 6 hours) was “no change”. For the same compound, the “reduction of proliferation (% BrdU positive cells)” value [20, 21] was about 30%, the “growth after treatment (FIG. 6)” value ([20]; MYC-transformed human neural stem cells) was “decreased growth” and the “proliferation (BrdU positive cells)” value ([20]; acivicin 72 h, BrdU for the final 6 hours) was “significant decrease”. The “growth as measured by MTS assay (sensitivity)” value [7] was “relatively resistant; also recorded: virtually no suppression of growth; also recorded: not sensitive”, the “apoptosis (cleaved caspase-3 immunofluorescence)” value [8] was “increase apoptosis” and the “sub-G1 (apoptotic) population” value [9] was “increase”. The “sub-G1 (apoptotic) population” value [10] was “increase”, the “growth as measured by MTS assay” value [11] was “suppressed” and the “growth as measured by MTS assay” value ([11]; listed as Acivicin) was “inhibited”. For the same compound, the inhibition at 10 µM ([11]; Homo sapiens, D425 Med, 72 h, D425, 10 uM acivicin, 3 days) was at least 50%, the “growth as measured by MTS assay” value [12] was “suppressed” and the “growth as measured by MTS assay” value ([12]; listed as Acivicin) was “inhibited”. It also gave an inhibition at 10 µM ([12]; Homo sapiens, 72 h, D283, 10 uM acivicin, 3 days) of at least 50%.
